Experimental data published in US8309553B2, “Anhydrous crystal form of ovrepitant maleate” (Glaxo Group Limited, priority 2008, dated 2012).

Key:
[1] = stability of the crystalline form (statement only, no method described); format: physicochemical
[2] = hygroscopicity of the crystalline form (statement only, no method described); format: physicochemical; details: solid form

Cc1cc(F)ccc1[C@H]1C[C@@H](N2CCN3C(=O)CC[C@H]3C2)CCN1C(=O)N(C)[C@H](C)c1cc(C(F)(F)F)cc(C(F)(F)F)c1.O=C(O)/C=C\C(=O)O [Form 1, (2R,4S)—N-{(1R)-1-[3,5-bis(trifluoromethyl)phenyl]ethyl}-2-(4-fluoro-2-methylphenyl)-N-methyl-4-[(8aS)-6-oxohexahydropyrrolo[1,2-a]pyrazin-2(1H)-yl]-1-piperidinecarboxamide maleate]
thermodynamic stability relative to Form 2 ([1]; compared with Form 2 orvepitant maleate): thermodynamically more stable | stability of the crystalline form ([1]; solid form): particularly stable | hygroscopicity [2]: essentially non hygroscopic
